Laboratory results from ChEMBL document CHEMBL1201862, “PubChem BioAssay data set” (2004).
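Protocol summary: plate cells (96-well), add compound at 5 concentrations, incubate 48 h, interpolate endpoints linearly. GI50 = concentration required for 50% inhibition of growth.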 Active and inactive are the calls of the source. No stated cut-off is given here; in the data, active = GI50 up to about 1.1 µM and inactive = higher.

Columns and labels:
Assay in all cases: DTP human tumour cell line panel, 48 h
[1] = test system: 786-0
[2] = test system: A498
[3] = test system: A549
[4] = test system: ACHN
[5] = test system: BT-549
[6] = test system: CAKI-1
[7] = test system: CCRF-CEM
[8] = test system: COLO 205
[9] = test system: DU-145
[10] = test system: EKVX
[11] = test system: HCT-116
[12] = test system: HCT-15
[13] = test system: HL-60
[14] = test system: HOP-62
[15] = test system: HOP-92
[16] = test system: HT-29
[17] = test system: Hs-578T
[18] = test system: IGROV-1
[19] = test system: K562
[20] = test system: KM12
[21] = test system: LOX IMVI
[22] = test system: M14
[23] = test system: MCF7
[24] = test system: MDA-MB-231
[25] = test system: MDA-MB-435
[26] = test system: MDA-N
[27] = test system: MOLT-4
[28] = test system: Malme-3M
[29] = test system: NCI-H226
[30] = test system: NCI-H23
[31] = test system: NCI-H460
[32] = test system: NCI-H522
[33] = test system: NCI/ADR-RES
[34] = test system: OVCAR-4
[35] = test system: OVCAR-8
[36] = test system: PC-3
[37] = test system: RPMI-8226
[38] = test system: RXF 393
[39] = test system: SF-268
[40] = test system: SF-295
[41] = test system: SF-539
[42] = test system: SK-MEL-28
[43] = test system: SK-MEL-2
[44] = test system: SK-MEL-5
[45] = test system: SK-OV-3
[46] = test system: SN12C
[47] = test system: SNB-19
[48] = test system: SNB-75
[49] = test system: SR
[50] = test system: SW-620
[51] = test system: T47D
[52] = test system: TK-10
[53] = test system: U-251
[54] = test system: UACC-257
[55] = test system: UACC-62
[56] = test system: UO-31
[57] = test system: OVCAR-3
[58] = test system: HCC 2998
[59] = test system: OVCAR-5

CC(C)=CCC1=C(OCC(=O)O)C(=O)c2ccccc2C1=O was tested, and the GI50 [1] was 41.1 µM (inactive), the GI50 [2] was 76.7 µM (inactive) and the GI50 [3] was 30.8 µM (inactive). For the same compound, the GI50 [4] was 39.4 µM (inactive), the GI50 [5] was 29.9 µM (inactive) and the GI50 [6] was 52.5 µM (inactive). The GI50 [7] was 23.9 µM (inactive), the GI50 [8] was 60.3 µM (inactive) and the GI50 [9] was 33.5 µM (inactive). The GI50 [10] was 37.1 µM (inactive), the GI50 [11] was 22.6 µM (inactive) and the GI50 [12] was 39.4 µM. The GI50 [13] was 14.5 µM (inactive), the GI50 [14] was 40.9 µM (inactive) and the GI50 [15] was 47.4 µM (inactive). For the same compound, the GI50 [16] was 47.2 µM (inactive), the GI50 [17] was 22.2 µM (inactive) and the GI50 [18] was 39.1 µM (inactive). The GI50 [19] was 33 µM (inactive), the GI50 [20] was 25.2 µM (inactive) and the GI50 [21] was 32.6 µM (inactive). The GI50 [22] was 33 µM (inactive), the GI50 [23] was 25.1 µM (inactive) and the GI50 [24] was 49.8 µM (inactive). The GI50 [25] was 15.5 µM (inactive), the GI50 [26] was 17.9 µM (inactive) and the GI50 [27] was 15.9 µM (inactive). The GI50 [28] was 19.3 µM (inactive), the GI50 [29] was 32.4 µM (inactive) and the GI50 [30] was 33 µM (inactive). The GI50 [31] was 34.5 µM (inactive), the GI50 [32] was 23.6 µM (inactive) and the GI50 [33] was 32.1 µM (inactive). For the same compound, the GI50 [34] was 31.9 µM (inactive), the GI50 [35] was 38.5 µM (inactive) and the GI50 [36] was 31.3 µM (inactive). For the same compound, the GI50 [37] was 24.1 µM (inactive), the GI50 [38] was 31.9 µM (inactive) and the GI50 [39] was 22.3 µM (inactive). The GI50 [40] was 11.9 µM (inactive), the GI50 [41] was 27.2 µM (inactive) and the GI50 [42] was 35 µM (inactive). For the same compound, the GI50 [43] was 25.7 µM (inactive), the GI50 [44] was 19.5 µM (inactive) and the GI50 [45] was 67.9 µM (inactive). For the same compound, the GI50 [46] was 24.5 µM (inactive), the GI50 [47] was 27.9 µM (inactive) and the GI50 [48] was 24.4 µM (inactive). The GI50 [49] was 34.3 µM (inactive), the GI50 [50] was 23 µM (inactive) and the GI50 [51] was 31.5 µM (inactive). For the same compound, the GI50 [52] was > 100 µM (inactive), the GI50 [53] was 30.3 µM (inactive) and the GI50 [54] was 29.1 µM (inactive). For the same compound, the GI50 [55] was 19 µM (inactive) and the GI50 [56] was 28 µM (inactive).
With O=[N+]([O-])c1ccc(-c2nc3cc(Cl)ccc3[nH]2)cc1 the GI50 [1] was 86.7 µM (inactive), the GI50 [3] was 42.3 µM (inactive) and the GI50 [4] was 50.1 µM (inactive). For the same compound, the GI50 [5] was 99.1 µM (inactive), the GI50 [6] was 62.7 µM (inactive) and the GI50 [8] was 32.9 µM (inactive). For the same compound, the GI50 [9] was 72.1 µM (inactive), the GI50 [10] was 69.5 µM (inactive) and the GI50 [11] was 49.2 µM (inactive). For the same compound, the GI50 [12] was 52 µM, the GI50 [14] was > 100 µM (inactive) and the GI50 [15] was 46.7 µM (inactive). For the same compound, the GI50 [16] was 51.4 µM (inactive), the GI50 [17] was > 100 µM (inactive) and the GI50 [18] was 81.3 µM (inactive). For the same compound, the GI50 [21] was 46.2 µM (inactive), the GI50 [22] was 60.7 µM (inactive) and the GI50 [23] was 27.3 µM (inactive). The GI50 [24] was > 100 µM (inactive), the GI50 [25] was 41.6 µM (inactive) and the GI50 [26] was 39.7 µM (inactive). For the same compound, the GI50 [27] was 64 µM (inactive), the GI50 [28] was > 100 µM (inactive) and the GI50 [29] was 82.6 µM (inactive). For the same compound, the GI50 [30] was 42.5 µM (inactive), the GI50 [31] was 37.2 µM (inactive) and the GI50 [32] was 14.4 µM (inactive). For the same compound, the GI50 [33] was 31.3 µM (inactive), the GI50 [57] was 45.1 µM (inactive) and the GI50 [34] was 95.5 µM (inactive). For the same compound, the GI50 [35] was 59.6 µM (inactive), the GI50 [36] was 32.7 µM (inactive) and the GI50 [37] was 25.5 µM (inactive). For the same compound, the GI50 [39] was > 100 µM (inactive), the GI50 [40] was 39.2 µM (inactive) and the GI50 [41] was 54.6 µM (inactive). For the same compound, the GI50 [42] was > 100 µM (inactive), the GI50 [44] was 51.4 µM (inactive) and the GI50 [45] was > 100 µM (inactive). For the same compound, the GI50 [46] was 43.6 µM (inactive), the GI50 [47] was 78.5 µM (inactive) and the GI50 [48] was 73.5 µM (inactive). The GI50 [49] was 34.6 µM (inactive), the GI50 [50] was 62.4 µM (inactive) and the GI50 [51] was 39.1 µM (inactive). The GI50 [52] was > 100 µM (inactive), the GI50 [54] was 76 µM (inactive) and the GI50 [55] was 81.1 µM (inactive). The GI50 [56] was 26.1 µM (inactive).
O=C(O)Cc1ccc(/N=N/c2c(O)c(C(=O)O)cc3ccccc23)cc1 was tested, and the GI50 [1] was > 100 µM (inactive), the GI50 [3] was > 100 µM (inactive) and the GI50 [4] was > 100 µM (inactive). The GI50 [5] was > 100 µM (inactive), the GI50 [6] was > 100 µM (inactive) and the GI50 [7] was > 100 µM (inactive). For the same compound, the GI50 [8] was > 100 µM (inactive), the GI50 [9] was > 100 µM (inactive) and the GI50 [10] was > 100 µM (inactive). For the same compound, the GI50 [58] was > 100 µM (inactive), the GI50 [11] was > 100 µM (inactive) and the GI50 [12] was greater than 100 µM. For the same compound, the GI50 [13] was > 100 µM (inactive), the GI50 [14] was > 100 µM (inactive) and the GI50 [15] was > 100 µM (inactive). For the same compound, the GI50 [16] was > 100 µM (inactive), the GI50 [17] was > 100 µM (inactive) and the GI50 [18] was > 100 µM (inactive). The GI50 [19] was > 100 µM (inactive), the GI50 [20] was > 100 µM (inactive) and the GI50 [22] was > 100 µM (inactive). The GI50 [23] was > 100 µM (inactive), the GI50 [24] was > 100 µM (inactive) and the GI50 [25] was > 100 µM (inactive). The GI50 [26] was > 100 µM (inactive), the GI50 [27] was > 100 µM (inactive) and the GI50 [28] was 24.8 µM (inactive). For the same compound, the GI50 [29] was > 100 µM (inactive), the GI50 [31] was > 100 µM (inactive) and the GI50 [33] was > 100 µM (inactive). The GI50 [57] was > 100 µM (inactive), the GI50 [34] was > 100 µM (inactive) and the GI50 [59] was > 100 µM (inactive). For the same compound, the GI50 [35] was > 100 µM (inactive), the GI50 [36] was > 100 µM (inactive) and the GI50 [37] was > 100 µM (inactive). The GI50 [38] was > 100 µM (inactive), the GI50 [39] was > 100 µM (inactive) and the GI50 [40] was > 100 µM (inactive). For the same compound, the GI50 [41] was > 100 µM (inactive), the GI50 [42] was > 100 µM (inactive) and the GI50 [43] was > 100 µM (inactive). For the same compound, the GI50 [44] was 71.8 µM (inactive), the GI50 [45] was > 100 µM (inactive) and the GI50 [46] was > 100 µM (inactive). For the same compound, the GI50 [47] was > 100 µM (inactive), the GI50 [48] was > 100 µM (inactive) and the GI50 [49] was > 100 µM (inactive). For the same compound, the GI50 [50] was > 100 µM (inactive), the GI50 [51] was > 100 µM (inactive) and the GI50 [52] was > 100 µM (inactive). For the same compound, the GI50 [53] was > 100 µM (inactive), the GI50 [54] was > 100 µM (inactive) and the GI50 [55] was > 100 µM (inactive). The GI50 [56] was > 100 µM (inactive).
